How the values were obtained:
Format in all cases: cell-based
[1] = biological target: T1, rat TRPM8 channel (Rattus norvegicus, UniProt Q8R455); assay: Ca2+ microfluorometry, menthol-induced Ca2+ influx in HEK293 cells expressing rat TRPM8; settings: 100 µM menthol, HEK-rTRPM8; for % Blockade 5 µM: 5 µM compound; for % Blockade 50 µM: 50 µM compound; for IC50: Ca2+ microfluorometry
T1 construct: expressed in transfected cells; host or cells: HEK293 (stably transfected)
Method: The ability to inhibit menthol-induced Ca^2+ intracellular influx into the cytosol on HEK293 cells heterologously expressing the rat TRPM8 channel was measured and compared to that of AMTB, a well-known TRPM8 antagonist. Representative recordings of fluorescence obtained in microfluorometry experiments for selected compounds are in Supplementary Fig. S3.
(§1) Human embryonic kidney cell line (HEK) stably transfected with rTRPM8 or h-TRPV1 were used as previously described. Briefly, cells were seeded in 96-well plates at a cell density of 30,000 cells 2 days before treatment. Buffer used was HBBS (in mM): 138 NaCl, 5.33 KCl, 1.26 CaCl2, 0.5 MgCl-6H2O, 0.4 MgSO4-7H2O, 4 NaHCO3 0.44 KH2PO4, 0.3 Na2HPO4, pH 7.4. The day of treatment the medium was replaced with 100 µL of the dye loading solution Fluo-4 NW supplemented with probenecid 2.5 mM. After incubation, plates were transferred to a fluorescence plate reader (Polastar BMG). In the experimental protocol, the baseline fluorescence was recorded ([…]) for 3 cycles. After, vehicle, compound at different concentrations and the corresponding antagonist, 10 µM AMTB for TRPM8 or 10 µM Ruthenium Red for TRPV1 were added to the well. Fluorescence intensity was recorded during 7 cycles more. Finally, the agonist 100 µM menthol for TRPM8 or 1 µM capsaicin for TRPV1 was added and fluorescence intensity was recorded during 10 cycles more.
The degree of inhibition of TRPM8 channel gating was calculated by comparison to calcium increase signal elicited by test substances and menthol at 100 µM. Decrease of menthol signal was expressed as percentage of inhibition (%). All data are expressed as mean ± standard deviation (SD). Each condition was assessed by triplicate (n = 3) in 3 independent experiments (N = 3). Z-factor was calculated in each assay using the following equation: […]. In all the experiments Z-factor was ≥ 0.5. To calculate IC50, normalized responses (%) versus log [µM] were adjusted to a non-linear fit with variable slope, a four-parameter dose–response curve following curve Y = 100/(1 + 10^((Log IC50-X)*HillSlope)) where […].

[2] = biological target: T2, hTRPV1 channels (Homo sapiens, UniProt Q8NER1); assay: Ca2+ microfluorometry in HEK cells expressing hTRPV1 (capsaicin); settings: 1 µM capsaicin; for TRPV1 Blockade (%) 5 µM: 5 µM compound; for TRPV1 Blockade (%) 50 µM: 50 µM compound
T2 construct: expressed in transfected cells; host or cells: HEK (stably transfected)
Method: β-Lactam and 2-ketopiperazine derivatives were also assayed for their activity in cell expressing hTRPV1 channels. No significant antagonist activity was measured for any derivatives within both chemotypes (Supplementary Tables S1, S2, and Fig. S3), indicating their selectivity for TRPM8 channels.
as §1
Table S1. Activity at hTRPV1 of β–lactams derived from phenylalaninol conjugates
Compd. Isomer Isomer TRPV1 Blockade (%)
Table S2. Activity at hTRPV1 of 2-ketopiperazines derived from phenylalaninol

[3] = system: A549 (lung carcinoma, NSCLC); assay: SRB cytotoxicity assay, A549; settings: 72 h, SRB
Method: (§2) Human tumor cell lines used in this study were purchased from the ATCC. A-549 (CCL-185), lung carcinoma; HT-29 (HTB-38), colorectal adenocarcinoma; MDA-MB-231 (HTB-26), breast adenocarcinoma; PSN1, pancreas adenocarcinoma.
(§3) All cell lines were maintained in DMEM (Dulbecco’s Modified Eagle's Medium) culture medium supplemented with 10% FBS (Fetal Bovine Serum), 100 Units/mL penicillin/streptomycin at 37 °C, 5% CO2 and 95% humidity.
(§4) Triplicate cultures were incubated for 72 h in the presence or absence of test compounds in dose–response curves (10 concentrations, typically ranging from 10 to 0.0026 µg/mL). A colorimetric assay using sulforhodamine B (SRB) was adapted for quantitative measurement of cell growth and cytotoxicity. A more detailed information on this assay is provides in the supplementary information. GI50 is the compound concentration that produces 50% inhibition on cell growth as compared to control cells.
(§5) In vitro bioassays for the detection of antitumor activity
(§6) The aim of this assay is to evaluate the in vitro cytostatic (ability to delay or arrest tumor cell growth) or cytotoxic (ability to kill tumor cells) activity of the samples […]
(§7) Name Nº ATCC Species Tissue Characteristics
(§8) A549 CCL-185 human lung lung carcinoma (NSCLC)
(§9) HT29 HTB-38 human colon colorectal adenocarcinoma
(§10) MDA-MB-231 HTB-26 human breast breast adenocarcinoma
(§11) PSN1 CRM-CRL-3211 human pancreas pancreas adenocarcinoma […]
(§12) A colorimetric assay, using Sulforhodamine B (SRB) reaction has been adapted to provide a quantitative measurement of cell growth and viability (following the technique described by Skehan et al. J. Natl. Cancer Inst. 1990, 82, 1107-1112 […]
(§13) This form of assay employs 96-well cell culture microplates following the standards of the American National Standards Institute and the Society for Laboratory […]
(§14) used in this study were obtained from the American Type Culture Collection (ATCC) and derive from different types of human cancer.
(§15) A549, HT29, MDA-MB-231 and PSN1 cells were maintained in Dulbecco’s
(§16) Modified Eagle Medium (DMEM) supplemented with 10% Fetal Bovine Serum (FBS), 2mM L-glutamine, 100 U/mL penicillin, and 100 U/mL streptomycin at 37 °C, 5% CO2 and 98% humidity. For the experiments, cells were harvested from subconfluent cultures using trypsinization and resuspended in fresh medium before counting and […]
(§17) A549, HT29, MDA-MB-231 and PSN1 cells were seeded in 96 well microtiter plates, at 5000 cells per well in aliquots of 150 µL, and allowed to attach to the plate surface for 18 hours (overnight) in drug free medium. After that, one control (untreated) plate of each cell line was fixed (as described below) and used for time zero reference value. Culture plates were then treated with test compounds (50 µL aliquots of 4X stock […]
(§18) solutions in complete culture medium plus 4% DMSO) using ten 2/5 serial dilutions (concentrations ranging from 10 to 0.003 µg/mL) and triplicate cultures (1% final concentration in DMSO). After 72 hours treatment, the antitumor effect was measured by using the SRB methodology: Briefly, cells were washed twice with PBS, fixed for 15 min in 1% glutaraldehyde solution at room temperature, rinsed twice in PBS, and stained in 0.4% SRB solution for 30 min at room temperature. Cells were then rinsed several times with 1% acetic acid solution and air-dried at room temperature. SRB was then extracted in 10 mM trizma base solution and the absorbance measured in an automated spectrophotometric plate reader at 490 nm.
(§19) Effects on cell growth and survival were estimated by applying the NCI algorithm (Boyd MR and Paull KD. Drug Dev. Res. 1995, 34, 91-109, DOI:10.1002/ddr.430340203). The values obtained in triplicate cultures were fitted by nonlinear regression to a four-parameters logistic curve by nonlinear regression analysis. . Using the absorbance measurements [time zero, (Tz), control growth, (C), and test growth in the presence of drug at the ten concentration levels (Ti)], the […]

[4] = system: HT29 (colorectal adenocarcinoma); assay: SRB cytotoxicity assay, HT29; settings: 72 h, SRB
Method: as §2, §3, §4, §5, §6, §7, §8, §9, §10, §11, §12, §13, §14, §15, §16, §17, §18, §19

[5] = system: MDA-MB-231 (breast adenocarcinoma); assay: SRB cytotoxicity assay, MDA-MB-231; settings: 72 h, SRB
Method: as §2, §3, §4, §5, §6, §7, §8, §9, §10, §11, §12, §13, §14, §15, §16, §17, §18, §19

[6] = system: PSN1 (pancreas adenocarcinoma); assay: SRB cytotoxicity assay, PSN1; settings: 72 h, SRB
Method: as §2, §3, §4, §5, §6, §7, §8, §9, §10, §11, §12, §13, §14, §15, §16, §17, §18, §19

[7] = total growth inhibition, unit inferred

T2 sequence (Q8NER1 whole entry): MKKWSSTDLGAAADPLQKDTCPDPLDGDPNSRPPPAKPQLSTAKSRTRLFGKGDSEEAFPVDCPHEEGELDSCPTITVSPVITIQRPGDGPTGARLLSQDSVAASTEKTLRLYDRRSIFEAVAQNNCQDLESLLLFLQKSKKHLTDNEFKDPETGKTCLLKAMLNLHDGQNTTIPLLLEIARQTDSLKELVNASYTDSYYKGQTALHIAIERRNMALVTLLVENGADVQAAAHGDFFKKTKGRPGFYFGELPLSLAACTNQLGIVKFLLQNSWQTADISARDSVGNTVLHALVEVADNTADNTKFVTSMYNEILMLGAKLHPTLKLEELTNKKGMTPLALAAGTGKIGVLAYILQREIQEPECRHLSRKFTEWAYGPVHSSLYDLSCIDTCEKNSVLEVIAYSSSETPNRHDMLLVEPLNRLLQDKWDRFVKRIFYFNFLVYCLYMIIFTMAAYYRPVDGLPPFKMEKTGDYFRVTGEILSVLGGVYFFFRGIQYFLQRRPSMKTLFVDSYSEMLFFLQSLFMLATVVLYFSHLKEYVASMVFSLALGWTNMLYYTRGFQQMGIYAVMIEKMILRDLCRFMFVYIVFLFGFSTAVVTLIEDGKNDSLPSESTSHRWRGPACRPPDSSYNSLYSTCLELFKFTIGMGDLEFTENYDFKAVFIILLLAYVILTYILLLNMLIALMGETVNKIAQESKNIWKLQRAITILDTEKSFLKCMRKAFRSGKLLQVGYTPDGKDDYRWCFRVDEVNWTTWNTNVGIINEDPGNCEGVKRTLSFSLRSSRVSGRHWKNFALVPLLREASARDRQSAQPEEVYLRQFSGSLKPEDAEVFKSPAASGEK
T1 sequence (Q8R455 whole entry): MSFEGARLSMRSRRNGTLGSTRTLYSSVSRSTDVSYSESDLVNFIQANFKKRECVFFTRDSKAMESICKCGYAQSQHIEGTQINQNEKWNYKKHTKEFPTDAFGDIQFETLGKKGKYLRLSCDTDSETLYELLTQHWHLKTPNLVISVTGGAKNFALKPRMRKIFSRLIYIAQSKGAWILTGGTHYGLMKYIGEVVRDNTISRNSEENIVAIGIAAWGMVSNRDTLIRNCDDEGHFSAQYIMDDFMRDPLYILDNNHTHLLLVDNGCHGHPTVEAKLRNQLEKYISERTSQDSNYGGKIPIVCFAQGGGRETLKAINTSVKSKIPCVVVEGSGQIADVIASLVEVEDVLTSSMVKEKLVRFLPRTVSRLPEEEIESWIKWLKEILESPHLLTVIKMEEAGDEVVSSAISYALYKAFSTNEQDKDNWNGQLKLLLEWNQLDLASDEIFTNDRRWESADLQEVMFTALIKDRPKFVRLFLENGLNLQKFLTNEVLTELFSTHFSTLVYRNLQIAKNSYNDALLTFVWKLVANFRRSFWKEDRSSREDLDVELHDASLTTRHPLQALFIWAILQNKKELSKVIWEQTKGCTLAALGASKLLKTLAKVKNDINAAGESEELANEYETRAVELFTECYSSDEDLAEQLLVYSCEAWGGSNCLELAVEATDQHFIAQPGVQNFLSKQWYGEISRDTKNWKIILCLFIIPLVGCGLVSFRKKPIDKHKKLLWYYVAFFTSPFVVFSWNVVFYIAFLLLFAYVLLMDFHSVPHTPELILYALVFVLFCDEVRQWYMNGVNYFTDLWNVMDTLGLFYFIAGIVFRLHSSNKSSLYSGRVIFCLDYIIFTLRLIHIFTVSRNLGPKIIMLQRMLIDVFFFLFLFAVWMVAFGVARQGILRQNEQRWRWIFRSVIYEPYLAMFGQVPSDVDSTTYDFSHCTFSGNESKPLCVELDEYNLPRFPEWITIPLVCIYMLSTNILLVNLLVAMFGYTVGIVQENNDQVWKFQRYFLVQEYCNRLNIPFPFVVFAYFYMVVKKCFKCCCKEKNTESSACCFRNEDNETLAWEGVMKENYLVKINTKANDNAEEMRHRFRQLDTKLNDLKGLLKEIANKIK

SMILES | % Blockade 5 µM [1] [%] | % Blockade 50 µM [1] [%] | IC50 [1] [nM] | TRPV1 Blockade (%) 5 µM [2] [%] | TRPV1 Blockade (%) 50 µM [2] [%] | TGI A549 [3, 7] [µM] | GI50 ([3]; Homo sapiens, A549) [µM] | CC50 ([3]; Homo sapiens, A549, unit inferred, read-out: LC50 A549) [µM] | TGI HT29 [4, 7] [µM] | GI50 ([4]; Homo sapiens, HT-29) [µM] | CC50 ([4]; Homo sapiens, HT-29, unit inferred, read-out: LC50 HT29) [µM] | TGI MDA-MB-231 [5, 7] [µM] | GI50 ([5]; Homo sapiens, MDA-MB-231) [µM] | CC50 ([5]; Homo sapiens, MDA-MB-231, unit inferred, read-out: LC50 MDA-MB-231) [µM] | TGI PSN1 [6, 7] [µM] | GI50 ([6]; Homo sapiens, PSN1) [µM] | CC50 ([6]; Homo sapiens, PSN1, unit inferred, read-out: LC50 PSN1) [µM]
O=C(OCc1ccccc1)C(Cc1ccccc1)N1C[C@H](Cc2ccccc2)N(C(=O)OCc2ccccc2)CC1=O (some centres unmarked) [Compound 13ab] | 48.9 ± 6.2 | 102.1 ± 7.7 | – | 7.2±3.8 | 8.1±3.4 | > 17.8 | > 17.8 | > 17.8 | > 17.8 | > 17.8 | > 17.8 | > 17.8 | > 17.8 | > 17.8 | > 17.8 | > 17.8 | > 17.8
COC(=O)C(Cc1ccccc1)N1C[C@H](Cc2ccccc2)N(C(=O)OCc2ccccc2)CC1=O (some centres unmarked) [Compound 20ab] | 22.3 ± 5.5 | 61.0 ± 5.6 | 18800 ± 1700 | 12.2±3.1 | 19.3±1.2 | – | – | – | – | – | – | – | – | – | – | – | –
O=C(OCc1ccccc1)C(Cc1ccccc1)N1C[C@H](Cc2ccccc2)N(C(=O)OCc2ccccc2)CC1=O (some centres unmarked) [Compound 21ab] | 70.0 ± 6.8 | 92.5 ± 4.3 | 2000 ± 1500 | 6.2±3.1 | 11.8±1.8 | – | – | – | – | – | – | – | – | – | – | – | –
CC1C(=O)N(C[C@H](Cc2ccccc2)NC(=O)OCc2ccccc2)[C@@]1(Cc1ccccc1)C(=O)OCc1ccccc1 (some centres unmarked) [Compound 25ab] | 68.2 ± 5.6 | 89.2 ± 9.2 | 3900 ± 1900 | 3.4±1.7 | 4.3±1.1 | – | – | – | – | – | – | – | – | – | – | – | –

Further compounds by falling IC50 [1], results first:

% Blockade 5 µM [1] [%] | % Blockade 50 µM [1] [%] | IC50 [1] [nM] | TRPV1 Blockade (%) 5 µM [2] [%] | TRPV1 Blockade (%) 50 µM [2] [%] | SMILES | TGI A549 [3, 7] [µM] | GI50 ([3]; Homo sapiens, A549) [µM] | CC50 ([3]; Homo sapiens, A549, unit inferred, read-out: LC50 A549) [µM] | TGI HT29 [4, 7] [µM] | GI50 ([4]; Homo sapiens, HT-29) [µM] | CC50 ([4]; Homo sapiens, HT-29, unit inferred, read-out: LC50 HT29) [µM] | TGI MDA-MB-231 [5, 7] [µM] | GI50 ([5]; Homo sapiens, MDA-MB-231) [µM] | CC50 ([5]; Homo sapiens, MDA-MB-231, unit inferred, read-out: LC50 MDA-MB-231) [µM] | TGI PSN1 [6, 7] [µM] | GI50 ([6]; Homo sapiens, PSN1) [µM] | CC50 ([6]; Homo sapiens, PSN1, unit inferred, read-out: LC50 PSN1) [µM]
92.3 ± 6.2 | 100.0 ± 3.1 | 1500 ± 1200 | 9.2±1.4 | 15.3±2.8 | O=C(N[C@@H](Cc1ccccc1)CN1C(=O)CC1(Cc1ccccc1)C(=O)OCc1ccccc1)OCc1ccccc1 (some centres unmarked) [Compound 12ab] | – | – | – | – | – | – | – | – | – | – | – | –
91.0 ± 4.3 | 103 ± 2.7 | 1200 ± 1000 | 4.1±2.4 | 8.7±3.5 | O=C(N[C@H](Cc1ccccc1)CN1C(=O)CC1(Cc1ccccc1)C(=O)OCc1ccccc1)OCc1ccccc1 (some centres unmarked) [Compound 14ab] | – | – | – | – | – | – | – | – | – | – | – | –

Source: publication PMC7447632, “Highly functionalized β-lactams and 2-ketopiperazines as TRPM8 antagonists with antiallodynic activity” (Scientific Reports, 2020)
